The text below walks through data of US12479847B2 (DANA-FARBER CANCER INSTITUTE, INC., priority 2019, dated 2025).

Holding throughout (assay): KINOMEscan (ScanMAX) kinase profiling
Holding throughout (format): binding

In test [1] the target is T1, panel of 468 kinases (Homo sapiens, UniProt Q5S007).
T1 construct: purchased KINOMEscan (ScanMAX) service
As to conditions: LRRK2; 1 μM; read-out: % control.

Test [2] has as its target T2, panel of 468 kinases (Homo sapiens, UniProt Q92772).
T2 construct: purchased KINOMEscan (ScanMAX) service
T2 sequence (Q92772 1-493): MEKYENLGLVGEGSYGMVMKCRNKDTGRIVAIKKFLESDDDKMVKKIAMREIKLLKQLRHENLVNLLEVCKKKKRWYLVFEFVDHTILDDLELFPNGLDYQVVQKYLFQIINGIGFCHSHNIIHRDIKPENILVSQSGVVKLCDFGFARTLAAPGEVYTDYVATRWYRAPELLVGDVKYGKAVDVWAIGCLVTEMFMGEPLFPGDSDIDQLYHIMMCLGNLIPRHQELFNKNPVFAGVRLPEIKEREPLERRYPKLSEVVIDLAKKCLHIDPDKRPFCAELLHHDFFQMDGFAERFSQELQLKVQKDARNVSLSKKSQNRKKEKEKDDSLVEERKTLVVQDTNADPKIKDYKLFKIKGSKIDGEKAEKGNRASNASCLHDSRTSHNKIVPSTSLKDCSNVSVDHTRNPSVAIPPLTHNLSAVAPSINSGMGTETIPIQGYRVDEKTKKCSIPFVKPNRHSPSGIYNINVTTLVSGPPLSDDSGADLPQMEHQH
As to conditions: CDKL2; 1 μM; read-out: % control.

Test [3] deals with T3, panel of 468 kinases (Homo sapiens, UniProt Q9P289).
T3 construct: purchased KINOMEscan (ScanMAX) service
T3 sequence (Q9P289 whole entry): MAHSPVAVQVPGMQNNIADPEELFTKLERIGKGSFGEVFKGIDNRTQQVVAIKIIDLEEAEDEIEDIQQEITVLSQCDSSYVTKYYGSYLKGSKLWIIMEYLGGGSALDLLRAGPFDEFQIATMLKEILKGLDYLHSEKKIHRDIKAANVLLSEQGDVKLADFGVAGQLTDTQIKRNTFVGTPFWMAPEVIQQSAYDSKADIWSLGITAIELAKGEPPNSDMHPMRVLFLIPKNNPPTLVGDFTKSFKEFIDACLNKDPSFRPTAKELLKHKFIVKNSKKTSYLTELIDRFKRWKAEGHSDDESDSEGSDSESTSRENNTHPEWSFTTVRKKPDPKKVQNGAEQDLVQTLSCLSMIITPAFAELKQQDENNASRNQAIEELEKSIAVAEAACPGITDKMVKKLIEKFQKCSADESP
To be noted: MST4; 1 μM; read-out: % control.

Test [4] deals with T4, panel of 468 kinases (Homo sapiens, UniProt Q9C098).
T4 construct: purchased KINOMEscan (ScanMAX) service
T4 sequence (Q9C098 whole entry): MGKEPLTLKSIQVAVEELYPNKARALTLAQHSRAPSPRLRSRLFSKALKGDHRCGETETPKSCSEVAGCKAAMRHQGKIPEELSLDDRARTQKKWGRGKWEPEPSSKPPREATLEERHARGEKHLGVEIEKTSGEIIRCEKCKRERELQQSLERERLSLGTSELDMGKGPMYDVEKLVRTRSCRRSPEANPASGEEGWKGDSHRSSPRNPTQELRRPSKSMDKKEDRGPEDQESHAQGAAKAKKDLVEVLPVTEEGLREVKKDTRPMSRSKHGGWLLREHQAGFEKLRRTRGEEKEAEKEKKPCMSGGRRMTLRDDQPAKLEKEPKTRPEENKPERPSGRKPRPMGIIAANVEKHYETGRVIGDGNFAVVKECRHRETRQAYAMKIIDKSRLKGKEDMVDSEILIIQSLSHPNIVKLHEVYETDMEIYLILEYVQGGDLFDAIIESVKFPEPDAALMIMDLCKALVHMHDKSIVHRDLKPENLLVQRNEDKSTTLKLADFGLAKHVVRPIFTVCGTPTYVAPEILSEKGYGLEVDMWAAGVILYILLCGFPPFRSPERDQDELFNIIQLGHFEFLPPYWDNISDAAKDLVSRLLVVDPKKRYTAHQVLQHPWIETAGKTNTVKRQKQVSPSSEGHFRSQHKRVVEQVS
To be noted: DCAMKL3; 1 μM; read-out: % control.

Test [5] concerns the target T5, panel of 468 kinases (Homo sapiens, UniProt P08581).
T5 construct: purchased KINOMEscan (ScanMAX) service
As to conditions: MET; 1 μM; read-out: % control.

Test [6] deals with T6, panel of 468 kinases (Homo sapiens, UniProt Q92630).
T6 construct: purchased KINOMEscan (ScanMAX) service
T6 sequence (Q92630 1-601): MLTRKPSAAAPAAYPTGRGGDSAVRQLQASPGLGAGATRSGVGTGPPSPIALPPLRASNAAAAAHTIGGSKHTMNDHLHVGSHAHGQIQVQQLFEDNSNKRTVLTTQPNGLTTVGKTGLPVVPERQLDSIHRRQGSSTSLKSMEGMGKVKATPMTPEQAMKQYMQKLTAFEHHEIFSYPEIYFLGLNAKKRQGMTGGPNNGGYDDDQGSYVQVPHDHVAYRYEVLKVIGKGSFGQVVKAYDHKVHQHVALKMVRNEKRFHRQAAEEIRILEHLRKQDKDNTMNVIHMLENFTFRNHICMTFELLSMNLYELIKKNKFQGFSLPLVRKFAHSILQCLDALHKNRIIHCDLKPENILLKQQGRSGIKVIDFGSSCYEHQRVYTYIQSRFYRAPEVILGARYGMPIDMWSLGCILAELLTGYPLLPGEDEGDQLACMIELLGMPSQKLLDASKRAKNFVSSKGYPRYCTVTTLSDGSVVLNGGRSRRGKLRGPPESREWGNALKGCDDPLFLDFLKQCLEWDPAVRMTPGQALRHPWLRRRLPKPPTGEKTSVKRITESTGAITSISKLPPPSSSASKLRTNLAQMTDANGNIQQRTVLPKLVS
To be noted: DYRK2; 1 μM; read-out: % control.

Test [7] deals with T7, panel of 468 kinases (Homo sapiens, UniProt P57058).
T7 construct: purchased KINOMEscan (ScanMAX) service
T7 sequence (P57058 1-714): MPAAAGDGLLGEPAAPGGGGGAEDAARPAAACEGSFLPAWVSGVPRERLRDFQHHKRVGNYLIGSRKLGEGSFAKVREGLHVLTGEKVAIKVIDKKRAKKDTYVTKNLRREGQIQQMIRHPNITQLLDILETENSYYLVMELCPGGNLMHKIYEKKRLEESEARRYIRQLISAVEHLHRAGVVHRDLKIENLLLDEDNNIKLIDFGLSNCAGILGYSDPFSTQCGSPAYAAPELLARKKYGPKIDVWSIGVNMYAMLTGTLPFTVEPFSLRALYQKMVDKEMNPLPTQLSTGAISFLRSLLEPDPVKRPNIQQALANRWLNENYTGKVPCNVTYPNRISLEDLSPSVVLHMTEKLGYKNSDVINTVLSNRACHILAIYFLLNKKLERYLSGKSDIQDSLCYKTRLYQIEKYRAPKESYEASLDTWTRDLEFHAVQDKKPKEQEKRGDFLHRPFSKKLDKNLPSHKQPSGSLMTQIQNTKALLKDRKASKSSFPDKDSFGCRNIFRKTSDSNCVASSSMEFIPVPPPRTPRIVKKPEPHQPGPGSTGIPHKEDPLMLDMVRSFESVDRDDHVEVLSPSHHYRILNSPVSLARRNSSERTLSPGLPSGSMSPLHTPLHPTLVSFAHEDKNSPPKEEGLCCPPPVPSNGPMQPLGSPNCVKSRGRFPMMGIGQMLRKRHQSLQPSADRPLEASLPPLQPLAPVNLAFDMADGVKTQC
As to conditions: HUNK; 1 μM; read-out: % control.

T5 sequence (P08581 25-1390): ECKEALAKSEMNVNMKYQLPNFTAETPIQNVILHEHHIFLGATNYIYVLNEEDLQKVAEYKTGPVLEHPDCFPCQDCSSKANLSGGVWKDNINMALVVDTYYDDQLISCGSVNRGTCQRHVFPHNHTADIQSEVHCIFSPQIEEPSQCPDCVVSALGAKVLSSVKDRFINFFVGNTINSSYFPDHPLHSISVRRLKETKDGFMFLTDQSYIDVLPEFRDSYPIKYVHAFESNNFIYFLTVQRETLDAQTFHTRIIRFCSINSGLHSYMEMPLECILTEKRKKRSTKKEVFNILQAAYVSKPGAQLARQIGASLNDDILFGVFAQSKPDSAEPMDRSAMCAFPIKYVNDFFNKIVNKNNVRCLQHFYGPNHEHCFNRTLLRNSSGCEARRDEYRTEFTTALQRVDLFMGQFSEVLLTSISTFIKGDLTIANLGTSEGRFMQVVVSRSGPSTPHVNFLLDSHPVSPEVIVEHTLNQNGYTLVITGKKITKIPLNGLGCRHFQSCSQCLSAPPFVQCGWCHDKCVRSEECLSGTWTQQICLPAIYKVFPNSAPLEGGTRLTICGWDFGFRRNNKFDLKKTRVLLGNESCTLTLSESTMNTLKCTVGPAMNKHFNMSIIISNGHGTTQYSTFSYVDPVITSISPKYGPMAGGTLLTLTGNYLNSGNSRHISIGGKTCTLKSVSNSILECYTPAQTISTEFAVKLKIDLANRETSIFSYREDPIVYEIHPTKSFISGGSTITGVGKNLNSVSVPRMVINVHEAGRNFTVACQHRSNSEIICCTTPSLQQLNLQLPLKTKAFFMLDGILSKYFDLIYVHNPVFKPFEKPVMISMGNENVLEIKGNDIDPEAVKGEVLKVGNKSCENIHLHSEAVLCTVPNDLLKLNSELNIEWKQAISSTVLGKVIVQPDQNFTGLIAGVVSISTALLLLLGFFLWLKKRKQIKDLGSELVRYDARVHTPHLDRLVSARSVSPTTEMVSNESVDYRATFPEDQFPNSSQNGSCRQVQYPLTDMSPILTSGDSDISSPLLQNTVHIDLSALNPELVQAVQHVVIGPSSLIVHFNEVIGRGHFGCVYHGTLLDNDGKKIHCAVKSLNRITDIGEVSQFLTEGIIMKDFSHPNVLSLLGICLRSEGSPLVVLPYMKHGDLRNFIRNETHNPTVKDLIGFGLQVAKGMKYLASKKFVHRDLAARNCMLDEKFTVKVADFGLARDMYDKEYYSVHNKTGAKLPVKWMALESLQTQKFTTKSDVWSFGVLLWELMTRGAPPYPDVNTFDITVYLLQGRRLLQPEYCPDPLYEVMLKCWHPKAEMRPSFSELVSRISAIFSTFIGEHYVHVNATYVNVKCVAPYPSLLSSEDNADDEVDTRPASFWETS
T1 sequence (Q5S007 whole entry): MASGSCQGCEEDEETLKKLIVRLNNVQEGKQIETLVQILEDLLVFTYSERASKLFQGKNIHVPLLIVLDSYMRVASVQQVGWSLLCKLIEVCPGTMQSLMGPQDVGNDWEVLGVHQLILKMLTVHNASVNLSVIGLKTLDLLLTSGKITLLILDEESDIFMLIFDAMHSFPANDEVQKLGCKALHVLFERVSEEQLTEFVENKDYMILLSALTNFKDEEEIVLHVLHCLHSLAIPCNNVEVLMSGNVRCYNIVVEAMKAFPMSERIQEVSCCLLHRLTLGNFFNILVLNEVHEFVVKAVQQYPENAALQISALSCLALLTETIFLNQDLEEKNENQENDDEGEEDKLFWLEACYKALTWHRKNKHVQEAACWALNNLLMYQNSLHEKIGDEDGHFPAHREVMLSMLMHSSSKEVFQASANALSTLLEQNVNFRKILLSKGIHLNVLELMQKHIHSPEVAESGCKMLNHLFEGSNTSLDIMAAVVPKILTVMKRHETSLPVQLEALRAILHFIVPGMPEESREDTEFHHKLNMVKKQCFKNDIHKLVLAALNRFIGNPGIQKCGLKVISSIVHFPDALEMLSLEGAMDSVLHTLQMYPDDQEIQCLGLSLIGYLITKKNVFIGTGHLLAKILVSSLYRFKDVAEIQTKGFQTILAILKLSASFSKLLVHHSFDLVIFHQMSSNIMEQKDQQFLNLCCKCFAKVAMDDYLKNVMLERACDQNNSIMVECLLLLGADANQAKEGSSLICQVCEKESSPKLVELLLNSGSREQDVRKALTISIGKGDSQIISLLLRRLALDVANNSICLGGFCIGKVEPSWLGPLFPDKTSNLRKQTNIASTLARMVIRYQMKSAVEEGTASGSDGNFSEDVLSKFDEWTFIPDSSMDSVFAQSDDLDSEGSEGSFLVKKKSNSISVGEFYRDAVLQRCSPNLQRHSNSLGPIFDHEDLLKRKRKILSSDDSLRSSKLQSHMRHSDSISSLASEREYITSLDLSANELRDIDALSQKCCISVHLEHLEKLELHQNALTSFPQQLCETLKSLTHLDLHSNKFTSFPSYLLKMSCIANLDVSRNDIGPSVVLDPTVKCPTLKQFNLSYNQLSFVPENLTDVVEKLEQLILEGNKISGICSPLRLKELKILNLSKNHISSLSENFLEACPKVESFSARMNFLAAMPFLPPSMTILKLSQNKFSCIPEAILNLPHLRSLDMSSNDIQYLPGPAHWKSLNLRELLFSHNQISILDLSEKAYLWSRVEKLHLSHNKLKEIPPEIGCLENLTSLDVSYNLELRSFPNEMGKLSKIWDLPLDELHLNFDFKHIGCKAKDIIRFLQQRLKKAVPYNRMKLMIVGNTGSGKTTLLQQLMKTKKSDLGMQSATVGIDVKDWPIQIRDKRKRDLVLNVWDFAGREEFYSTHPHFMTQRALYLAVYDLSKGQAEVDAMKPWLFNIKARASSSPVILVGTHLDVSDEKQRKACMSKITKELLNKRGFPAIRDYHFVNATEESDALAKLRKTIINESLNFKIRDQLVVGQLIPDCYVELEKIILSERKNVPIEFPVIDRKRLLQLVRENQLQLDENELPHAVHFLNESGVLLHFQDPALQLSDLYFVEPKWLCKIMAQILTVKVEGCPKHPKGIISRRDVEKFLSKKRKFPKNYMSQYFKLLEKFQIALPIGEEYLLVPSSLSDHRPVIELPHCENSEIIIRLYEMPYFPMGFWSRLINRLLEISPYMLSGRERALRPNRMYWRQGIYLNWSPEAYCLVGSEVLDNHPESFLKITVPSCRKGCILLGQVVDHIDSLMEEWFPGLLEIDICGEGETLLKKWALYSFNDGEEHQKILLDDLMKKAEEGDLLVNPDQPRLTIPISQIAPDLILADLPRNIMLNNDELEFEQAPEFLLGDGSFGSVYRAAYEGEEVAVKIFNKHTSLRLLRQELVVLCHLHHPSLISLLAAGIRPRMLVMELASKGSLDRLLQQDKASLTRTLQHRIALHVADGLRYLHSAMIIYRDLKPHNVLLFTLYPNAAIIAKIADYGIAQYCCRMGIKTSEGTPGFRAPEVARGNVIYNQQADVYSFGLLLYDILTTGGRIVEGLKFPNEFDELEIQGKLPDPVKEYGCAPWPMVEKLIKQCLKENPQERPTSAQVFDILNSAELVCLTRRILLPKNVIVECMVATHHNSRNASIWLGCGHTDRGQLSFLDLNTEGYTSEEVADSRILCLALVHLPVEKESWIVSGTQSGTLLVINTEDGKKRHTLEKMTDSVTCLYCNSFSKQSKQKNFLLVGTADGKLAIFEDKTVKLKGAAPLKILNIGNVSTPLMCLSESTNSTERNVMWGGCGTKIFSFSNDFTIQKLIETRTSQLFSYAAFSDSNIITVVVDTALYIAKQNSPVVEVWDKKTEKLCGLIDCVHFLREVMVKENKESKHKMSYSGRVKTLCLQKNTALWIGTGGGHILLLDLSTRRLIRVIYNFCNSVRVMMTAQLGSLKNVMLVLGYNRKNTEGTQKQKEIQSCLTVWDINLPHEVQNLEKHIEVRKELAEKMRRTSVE

For `CNc1nc(Nc2ccc(S(=O)(=O)N3CCC(N4CCOCC4)CC3)cc2OC)nc2[nH]cc(Cl)c12` [Compound 12, 5-chloro-N2-(2-methoxy-4-((4-morpholinopiperidin-1-yl)sulfonyl)phenyl)-N4-methyl-7H-pyrrolo[2,3-d]pyrimidine-2,4-diamine], the remaining binding at 1 µM at panel of 468 kinases [1] was 0.8%; at panel of 468 kinases [2], 100%; on panel of 468 kinases [3], 80%; at panel of 468 kinases [4], 100%; at panel of 468 kinases [5], 100%; at panel of 468 kinases [6], 13%. On panel of 468 kinases [7], the remaining binding at 1 µM amounted to 12%.
For `CNc1nc(Nc2ccc(P3(=O)CCN(C4CCOCC4)CC3)cc2OC)nc2[nH]cc(Cl)c12` [Compound 77, 4-(4-((5-chloro-4-(methylamino)-7H-pyrrolo[2,3-d]pyrimidin-2-yl)amino)-3-methoxyphenyl)-1-(tetrahydro-2H-pyran-4-yl)-1,4-azaphosphinane 4-oxide], the remaining binding at 1 µM at panel of 468 kinases [1] came out at 0.4%; on panel of 468 kinases [2] it was 100%; on panel of 468 kinases [3] it was 76%; on panel of 468 kinases [4], 100%; on panel of 468 kinases [5], 100%; at panel of 468 kinases [6], 47%. Besides, the remaining binding at 1 µM at panel of 468 kinases [7] stood at 14%.
On to `CNc1nc(Nc2ccc(C(=O)N3CCC(N4CCOCC4)CC3)c3c2OCO3)nc2[nH]cc(Cl)c12` [Compound 75, (7-((5-chloro-4-(methylamino)-7H-pyrrolo[2,3-d]pyrimidin-2-yl)amino)benzo[d][1,3]dioxol-4-yl)(4-morpholinopiperidin-1-yl)methanone], for which the remaining binding at 1 µM at panel of 468 kinases [1] was found to be 1.4%; at panel of 468 kinases [2], 100%; on panel of 468 kinases [3] it was 51%; on panel of 468 kinases [4], 100%; on panel of 468 kinases [5], 100%; on panel of 468 kinases [6], 14%. Moreover, the remaining binding at 1 µM on panel of 468 kinases [7] came out at 18%.
